Experiments:
Format in all cases: biochemical, Streptomyces DSM 22643
Details in all cases: in vitro ATP-[32P]PPi exchange, amino acid 5 mM, 30° C., nine substrates tested
[1] = system: A domain of module 2 (A2) of NRPS-1; experiment: ATP-PPi exchange assay, substrate specificity of A domain A2
Protocol: (§1) In order to gain insight into the specificity of the A domains of modules 2, 5 and 8, the domains were recombinantly produced and their specificity analysed via an ATP/PPi exchange assay in vitro.
(§2) In order to directly investigate A domain substrate specificity, we aimed to express A domains A2, A5 and A8 from the griselimycin pathway as N-terminally His6-tagged proteins from pET28b (+). […]
(§3) Substrate specificity of the 3 purified adenylation domains was evaluated using the established ATP-PPi exchange assay (Mootz and Marahiel. 1997, Thomas et al., 2002). […] As a control, each protein was incubated in the absence of added amino acid, to determine the radioactivity background reaction. […]
(§4) To determine substrate specificity, ATP-[^32P]PPi reactions (100 μl) containing Tris-HCl (pH 7.5, 75 mM), MgCl2 (10 mM), […] (5 mM), amino acid (5 mM), and protein (2 μg) were performed at 30° C. ^32P-tetrasodium pyrophosphate was obtained from Perkin Elmer (NEN #NEX019). […] The charcoal was pelleted by centrifugation prior to being washed twice with the washing solution 0.1 M Na4P2O7 and 0.35 M perchloric acid in H2O), resuspended in H2O (500 μl), and counted by liquid scintillation (Beckman LS6500).

[2] = system: A domain of module 8 (A8) of NRPS-2; experiment: ATP-PPi exchange assay, substrate specificity of A domain A8
Protocol: as §1, §2, §3, §4

[3] = system: A domain of module 5 (A5) of NRPS-1; experiment: ATP-PPi exchange assay, substrate specificity of A domain A5
Protocol: as §1, §2, §3, §4

C[C@H]1CN[C@H](C(=O)O)C1 [(2S,4R)-4-methylproline]
specificity of the domain A2 for the substrate [1]: highest
specificity of the domain A8 for the substrate [2]: highest
specificity of the domain A5 for the substrate [3]: highest

O=C(O)[C@@H]1CCCN1 [L-proline]
specificity of the domain A8 for the substrate [2]: high specificity

Reference: patent publication US9422566B2, “Gene cluster for biosynthesis of griselimycin and methylgriselimycin” (SANOFI, priority 2011, dated 2016)
